Key:
[1] = Biodistribution of Gd-DOTMP complex in a rat: Gd in femur by inductively coupled plasma spectroscopy; type: in vivo, Sprague Dawley rat
Protocol: A 150 g Sprague Dawley rat was injected with 6-100 µL portions of the Gd-DOTMP, prepared in Example 4, over a 4 day period. This rat was then sacrificed and one of its femur bones was removed and found to weigh 0.690 g. This bone was dissolved in 5 mL of concentrated HCl and analyzed for Gd by inductively coupled plasma spectroscopy. The amount of Gd found in the femur bone was 16.76 µg, which corresponds to 419 µg in the total rat skeleton, assuming the femur is 1/25th of the total skeleton. This corresponds to 25.5% of the injected dose going to the bone. That result compares favorably with similar work done with radioactive tracer ¹⁵³Sm where at these high levels of injected doses about 25-30% of the injected dose localizes in the bone. Thus the behavior of Sm-DOTMP and Gd-DOTMP are very similar in vivo.

[2] = Determination of water proton T1 relaxation time (inversion recovery NMR, 270 MHz); type: physicochemical; conditions: deoxygenated, Example 1 complex at 680 µMolar in 20% D₂O (vol/vol)
Protocol: The complex from Example 1 was deoxygenated by bubbling dry nitrogen gas through it for 20 min. The sample was then placed in a 5 mm NMR tube and placed in a 270 MHz spectrometer for determination of the water proton relaxation time.
The NMR experiment used to measure the relaxation time was the standard inversion recovery technique for measuring spin-lattice (T₁) relaxation times. In this technique the intensity of the water proton NMR resonance is measured as a function of a variable delay time between radiofrequency pulses during which the spin system relaxes toward equilibrium. The final data, which consisted of peak intensities versus delay time, was plotted and fitted to an exponential function. The characteristic time for spin magnetization to reestablish itself (T₁) is obtained from the time constant of the fitted exponential function. The value for T₁ for the complex of Example 1 was 244 mS. This compares favorably to a value of 422 mS for a Gd-DTPA, and 540 mS for Gd-DOTA when the experiment was repeated using these complexes. (The Gd-DTPA and Gd-DOTA are known commercial MRI agents.)

[3] = Quantitative biodistribution of 159Gd tracer formulation in rat (NaI scintillation counting of tissues); type: in vivo, Sprague Dawley rat; conditions: 100 µL via tail vein, 2 hours after injection, ligand to metal molar ratio 1.5, 0.32 mg/mL
Source text: Quantitative biodistributions were obtained by injecting 50-100 microliters of the composition into the rail vein of unanesthetized male Sprague Dawley rats. The rats were then placed in cages lined with absorbent paper in order to collect all urine excreted prior to sacrifice. After a given period of time, the rats were sacrificed by cervical dislocation and the various tissues dissected. The samples were then rinsed with saline, blotted dry on absorbent paper and weighed. The radioactivity in the samples was measured with a NaI scintillation counter.
A 1.45 mg sample of DOTMP, prepared by the procedure of Example B, was placed in a vial and dissolved in 760 µL of water and 5 µL of 50% (wt/wt) of NaOH. A volume of 1000 µL of Gd solution (0.3 mM Gd in O.1N HCl), which contained tracer quantities of ¹⁵⁹Gd, was placed in a separate vial and 15 µL of the DOTMP solution was added. The pH of the solution was adjusted to 7 to 8 using NaOH. The amount of Gd as a complex was determined to be > 99% by cation exchange chromatography. This formulation has a ligand to metal molar ratio of 1.5.
A Sprague Dawley rat was injected with the above prepared formulation and the biodistribution determined. The rat was allowed to acclimate for five days then injected with 100 µL of the Gd solution described above via a tail vein. The rat weighed between 150 and 200 g at the time of injection. After 2 hours the rat was killed by cervical dislocation. Tissues were taken, weighed and the amount of radioactivity in each tissue was determined by counting in a NaI scintillation counter coupled to a multichannel analyzer. The counts in each tissue were compared to the counts in 100 µL standards in order to determine the percentage of the injected dose in each tissue or organ. The ligand (DOTMP) to metal (Gd) molar ratio = 1.5.

Molecule: Gd-DOTMP [Example 1]
- amount of Gd found in the femur bone ([1]; 150 g rat, 6-100 µL portions over a 4 day period, femur 0.690 g, ICP): 16.76 µg
- % of the injected dose going to the bone ([1]; 150 g rat, 6-100 µL portions over a 4 day period, from femur Gd): 25.5%
- Gd in the total rat skeleton ([1]; assuming the femur is 1/25th of the total skeleton): 419 µg
- T₁ (spin-lattice relaxation time of water protons) [2]: 244 mS

Molecule: ¹⁵⁹Gd-DOTMP [Ho-DOTMP]
- % OF INJECTED DOSE (159Gd) in Blood [3]: 0.08%
- % OF INJECTED DOSE (159Gd) in Bone [3]: 50%
- % OF INJECTED DOSE (159Gd) in Kidney [3]: 0.25%
- % OF INJECTED DOSE (159Gd) in Liver [3]: 0.08%

Molecule: O=C([O-])CN1CCN(CC(=O)[O-])CCN(CC(=O)O)CCN(CC(=O)[O-])CC1.[Gd+3] [Gd-DOTA]
- T₁ (spin-lattice relaxation time of water protons) [2]: 540 mS

Molecule: O=C([O-])CN(CCN(CC(=O)[O-])CC(=O)O)CCN(CC(=O)[O-])CC(=O)O.[Gd+3] [Gd-DTPA]
- T₁ (spin-lattice relaxation time of water protons) [2]: 422 mS

— patent publication EP0468634A1, “The use of macrocyclic aminophosphonic acid complexes as imaging agents” (THE DOW CHEMICAL COMPANY, priority 1990, dated 1992)
